# Results reported in patent US9453226B2, “Protection of cells from Alu-RNA-induced degeneration and inhibitors for protecting cells” (UNIVERSITY OF KENTUCKY RESEARCH FOUNDATION, priority 2011, dated 2016).
# What was measured:
# RPE = assay: Alu RNA-induced RPE degeneration in wild-type mice, inhibitors given intravitreously; type: in vivo; conditions: WT mice; subretinal Alu RNA; inhibitor intravitreous
# Experimental: Subretinal injection and imaging. Subretinal injections (1 μL) were performed using a Pico-Injector (PLI-100, Harvard Apparatus). Plasmids were transfected in vivo using 10% Neuroporter (Genlantis). Fundus imaging was performed on a TRC-50 IX camera (Topcon) linked to a digital imaging system (Sony). RPE flat mounts were immunolabeled using antibodies against zonula occludens-1 (Invitrogen).
# Retinal photographs of dilated mouse eyes were taken with a TRC-50 IX camera (Topcon) linked to a digital imaging system (Sony).
# Human eyes fixed in 2-4% paraformaldehyde were prepared as eyecups, cryoprotected in 30% sucrose, embedded in optimal cutting temperature compound (Tissue-Tek OCT; Sakura Finetek), and cryosectioned into 10 μm sections. Depigmentation was achieved using 0.25% potassium permanganate and 0.1% oxalic acid. Immunohistochemical staining was performed with the rabbit antibody against NLRP3 (1:100, Sigma Aldrich) or rabbit antibody against Caspase-1 (prediluted, AbCam). Isotype IgG was substituted for the primary antibody to assess the specificity of the staining. Bound antibody was detected with biotin-conjugated secondary antibodies, followed by incubation with ABC reagent and visualized by Vector Blue (Vector Laboratories). Levamisole (Vector Laboratories) was used to block endogenous alkaline phosphatase activity. Slides were washed in PBS, counterstained with neutral red (Fisher Scientific), rinsed with deionized water, air dried, and then mounted in Vectamount (Vector Laboratories). Fluorescent labeling of human tissue was performed with the rabbit antibody against PYCARD (1:50, Clone N-15, Santa Cruz Biotechnology) Immunolabeling was visualized by fluorescently conjugated anti-rabbit secondary antibody (Invitrogen). Tissue autofluorescence was quenched by incubating the sections in 0.3% Sudan black (Fisher Scientific). Sections were mounted in Vectashield with DAPI (Vector Laboratories). Mouse RPE/choroid flat mounts were fixed with 4% paraformaldehyde or 100% methanol, stained with rabbit antibodies against human zonula occludens-1 (1:100, Invitrogen) and visualized with Alexa594 (Invitrogen). All images were obtained using the Leica SP-5 or Zeiss Axio Observer Z1 microscopes.
# Subretinal injections (1 μL) in mice were performed using a Pico-Injector (PLI-100, Harvard Apparatus). In vivo transfection of plasmids coding for two different Alu sequences (pAlu) or empty control vector (pNull) (Bennett et al., 2008; Kaneko et al., 2011; Shaikh et al., 1997) was achieved using 10% Neuroporter (Genlantis). AAV1-BEST1-Cre (Alexander and Hauswirth, 2008) or AAV1-BEST1-GFP were injected at 1.0×10^11 pfu/mL and in vitro transcribed Alu RNA was injected at 0.3 mg/mL.
# siRNAs formulated in siRNA buffer (20 mM KCL, 0.2 mM MgCl2 in HEPES buffer at pH 7.5; Dharmacon) or phosphate buffered saline (PBS; Sigma-Aldrich); the TLR4 antagonist Ultra Pure Rhodobacter sphaeroides LPS (LPS-RS, InvivoGen), a peptide inhibitor of MyD88 homodimerization IMG-2005 (IMGENEX), control inhibitor (IMGENEX), recombinant IL-18 (Medical & Biological Laboratories), neutralizing rat antibodies against mouse IL-1β (IMGENEX), neutralizing rat antibodies against mouse IL-18 (Medical & Biological Laboratories), isotype control IgGs (R&D Systems or eBioscience as appropriate), Caspase-1 inhibitor Z-WEHD-FMK (R&D Systems), Caspase control inhibitor Z-FA-FMK (R&D Systems), DPI (Enzo Life Sciences), Mito-TEMPO (Enzo Life Sciences), MitoQ and dTPP (both adsorbed to cyclodextrin and provided by M.P. Murphy, MRC Mitochondrial Biology Unit), and gp91ds-tat and scrambled gp91 ds-tat (both Anaspec), were dissolved in phosphate buffered saline (PBS; Sigma-Aldrich) or dimethyl sulfoxide (DMSO; Sigma-Aldrich), and injected into the vitreous humor in a total volume of 1 μL with a 33-gauge Exmire microsyringe (Ito Corporation). […] As a control, Luc siRNA-chol (17+2 nt) was used with identical dosages.
# human RPE cells = assay: Loss of human RPE cell viability induced by DICER1 antisense; type: cell-based
# [1] = tested on: Dicer1 f/f mouse RPE cells; assay: Loss of viability of Dicer1 f/f mouse RPE cells treated with Ad-Cre; type: cell-based
# Experimental: Cells were plated at density of 15×10^3/cm^2 and after 16 h, at approximately 50% confluence, were infected with AdCre or AdNull (Vector Laboratories) with a multiplicity of infection of 1,000.
# miRNA = miRNA abundance in Dicer1-depleted mouse RPE cells; type: cell-based
# Source text: Total RNA containing miRNAs was polyadenylated and reverse transcribed using universal primer using the All-In-One miRNA q-RT-PCR Detection Kit (GeneCopoeia) according to the manufacturer's specifications using a universal reverse primer in combination with the following forward primers: mouse miR-184 (5′-[…]-3′); mouse miR-221/222 (5′-[…]-3′); mouse miR-320a (5′-[…]-3′), and mouse miR-484 (5′-[…]-3′). miRNA levels were normalized to levels of U6 snRNA (5′-[…]-3′) using the 2^−ΔΔCt method. Detection was achieved by SYBR green qPCR with the following conditions: 95° C. for 10 min followed by 40 cycles of 95° C. for 10 s, 60° C. for 20 s and 72° C. for 20 s. Amplicon specificity was assessed by melt curve analysis and unique bands by agarose gel electrophoresis.
sequence,measurement,setting,value
DRQIKIWFQNRRMKWKKRDVLPGT [MyD88 inhibitory peptide],Alu RNA-induced RPE degeneration,RPE,prevented RPE degeneration
same,loss of human RPE cell viability induced by DICER1 antisense (AS),human RPE cells,rescues
same,loss of cell viability in Dicer1 f/f mouse RPE cells treated with Ad-Cre,[1],rescues
same,miRNA abundance versus control peptide,miRNA,No significant difference
